Experimental data as given in patent publication US20090123565A9, “Copper-dependent non-traditional pro-inflammatory cytokine export and methods, compositions and kits relating thereto” (Maine Medical Center Research Institute, priority 2001, published 2009).
Starred links: 1 amine or outer side, 2 acyl side, 3 side chain; linkers in the order of their positions; H or OH if unused. Positions of bridges follow the written chain, without caps; N, C: chain ends. Non-standard residues stand in square brackets, D forms with d. Residues, ends and D or L forms follow the SMILES beside them. Chains are numbered I, II in the order given. Actinocin(9to1) = Cc1c2oc3c(C)ccc(C(=O)[*:1])c3nc-2c(C(=O)[*:2])c(N)c1=O; NMeV = CN[C@H](C(=O)O)C(C)C; Sar = CNCC(=O)O

Tested on: IL1α release from NIH 3T3 cell transfectants
Test: Heat shock-induced release of IL1α from NIH 3T3 cell transfectants (immunoblot of conditioned media)
Format: cell-based, human
Conditions: actinomycin D 10 μg/ml
Procedure: FIG. 5, comprising FIGS. 5A and 5B, depict the involvement of Cu^2+ in IL1α release. FIG. 5A is an image depicting results obtained using NIH 3T3 cells stably transfected with mIL1α-βGal. The cells were incubated for 18 hours at 37 C in the absence and presence of the Cu^2+ chelator, tetrathiomolybdate (TTM) as indicated and the untreated and treated cells either maintained at 37 C or subjected to heat shock as described in FIG. 3. The conditioned medium was evaluated for IL1α-βGal release by IL1α immunoblot analysis, and cell lysates from TTM-treated cells were used to monitor the intracellular level of IL1α-βGal expression. […] FIG. 5B is an image depicting release of IL1α-βGal in myc-S100A13 and IL1α-βGal NIH 3T3 cell cotransfectants and in insert-less vector and mIL1α-βGal NIH 3T3 cell transfectants in the presence and absence actinomycin D (10 μg/ml), as indicated, in response to heat shock. Conditioned media were processed and evaluated for IL1α-βGal immunoblot analysis as described in Tarantini et al. (2001).
Stable NIH 3T3 cell transfectants were generated accordingly with the following cDNA constructs cloned into pMEXneo (Tarantini, et al. 2001; Tarantini, et al. 1995; Tarantini, et al. 1998; LaVallee, et al. 1998; Carreira, et al. 1998; Landriscina, et al., 2001): human S100A13 with an amino-terminal fusion to a 6 Myc Tag (Myc-S100A13) (Landriscina, et al., 2001); human Myc-S100A13ΔBR (Landriscina, et al., 2001); human mIL1α (residues 113-271); human mIL1α with a carboxy-terminal fusion to a βGalactosidase tag (mIL1α-βGal) (Tarantini, et al. 2001); and pIL1α (residues 1-271) with a carboxy-terminal fusion to βGalactosidase (pIL1α-βGal) (Tarantini, et al. 2001). Recombinant human mIL1α was provided by Hoffmann-LaRoche. Recombinant human S100A13, as well as S100A13ΔBR, a S100A13 construct with the basic residue rich domain (residues 88 to 98) deleted, were generated as previously described (Landriscina, et al., 2001).
NIH 3T3 cell transfectants were grown to 70-80% confluency and prior to temperature stress, the cells were washed with serum-free DMEM. The heat shock was performed as previously described (Tarantini et al., 1995) in serum-free DMEM for 110 min at 42° C. Control cultures were incubated at 37° C. in serum-free DMEM. […] Immunoprecipitated and eluted proteins were resolved by 8% and 12% acrylamide SDS-PAGE, respectively, and evaluated by either IL1α (Tarantini, et al. 2001) or Myc (Landriscina, et al., 2001) immunoblot analysis. […] The effects of actinomycin D (Sigma Chemical Co., St. Louis, Mo.), cyclohexamide (Sigma) and tetrathiomolybdate (Sigma-Aldrich) on IL1α release were evaluated as previously reported (LaVallee et al., 1998).

Cc1c2oc3c(C)ccc(C(=O)N[C@@H]4C(=O)N[C@H](C(C)C)C(=O)N5CCC[C@H]5C(=O)N(C)CC(=O)N(C)[C@@H](C(C)C)C(=O)O[C@@H]4C)c3nc-2c(C(=O)N[C@@H]2C(=O)N[C@H](C(C)C)C(=O)N3CCC[C@H]3C(=O)N(C)CC(=O)N(C)[C@@H](C(C)C)C(=O)O[C@@H]2C)c(N)c1=O [actinomycin D] (I: T[dV]P[Sar][NMeV] / II: T[dV]P[Sar][NMeV]; ester I:1-I:C, II:1-II:C; linker I:N-II:N via Actinocin(9to1)) was tested, and the “repression of export of IL1α-βGal in response to heat shock” value (Myc-S100A13 and IL1α-βGal NIH 3T3 cell cotransfectants) was “unable to repress” and the “repression of release of IL1α-βGal in response to heat shock” value (insert-less vector and IL1α-βGal NIH 3T3 cell cotransfectants) was “able to repress”.
